Columns and labels:
[1] = target: Dihydroorotate dehydrogenase (quinone), mitochondrial (Homo sapiens, UniProt Q02127); experiment: Binding affinity to human DHODH
[2] = target: T1, Dihydroorotate dehydrogenase (Plasmodium falciparum, UniProt Q54A96); experiment: Binding affinity to Plasmodium falciparum DHODH; settings: for Ki: read-out: Ki app
T1 sequence (Q54A96 whole entry): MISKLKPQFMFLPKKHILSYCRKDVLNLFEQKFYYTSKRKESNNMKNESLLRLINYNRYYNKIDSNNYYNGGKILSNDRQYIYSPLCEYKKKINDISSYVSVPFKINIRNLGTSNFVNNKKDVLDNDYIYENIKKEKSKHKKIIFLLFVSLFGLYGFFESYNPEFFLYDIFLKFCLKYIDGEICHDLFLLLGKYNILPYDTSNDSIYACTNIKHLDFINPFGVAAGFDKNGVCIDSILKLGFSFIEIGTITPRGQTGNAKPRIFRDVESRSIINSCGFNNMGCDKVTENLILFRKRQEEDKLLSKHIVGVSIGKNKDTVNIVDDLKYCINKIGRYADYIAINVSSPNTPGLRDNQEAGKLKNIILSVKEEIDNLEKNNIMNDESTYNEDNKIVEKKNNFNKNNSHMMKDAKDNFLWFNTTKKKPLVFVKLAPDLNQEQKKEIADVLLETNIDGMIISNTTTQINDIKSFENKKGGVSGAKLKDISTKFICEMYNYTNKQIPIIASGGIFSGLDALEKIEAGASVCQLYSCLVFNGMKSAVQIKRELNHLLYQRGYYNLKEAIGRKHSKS

Sequence of Dihydroorotate dehydrogenase (quinone), mitochondrial (Q02127 whole entry): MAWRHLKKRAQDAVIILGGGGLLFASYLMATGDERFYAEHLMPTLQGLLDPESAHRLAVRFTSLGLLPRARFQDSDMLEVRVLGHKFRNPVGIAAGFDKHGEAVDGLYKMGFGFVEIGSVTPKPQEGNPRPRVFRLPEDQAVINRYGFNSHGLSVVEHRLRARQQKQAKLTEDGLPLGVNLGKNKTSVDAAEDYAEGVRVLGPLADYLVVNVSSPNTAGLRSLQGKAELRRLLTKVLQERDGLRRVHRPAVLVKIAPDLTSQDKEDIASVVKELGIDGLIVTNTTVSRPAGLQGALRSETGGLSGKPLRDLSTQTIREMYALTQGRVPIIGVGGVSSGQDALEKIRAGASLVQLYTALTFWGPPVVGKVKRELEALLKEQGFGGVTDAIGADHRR

Q: Which IC50 [1] does the source give for `CN(C(=O)c1ccc(-c2ccccc2)cc1)c1ccccc1C(=O)O` here?
A: > 200 µM

Q: And the IC50 [2]?
A: 42.6 µM

Q: And the Ki [2]?
A: 4.9 µM

Q: What does the source list for `O=C(Nc1ccccc1C(=O)O)c1ccc2cc(Br)ccc2c1`?
A: IC50 [1]: 8.4 µM; Ki [1]: 1.1 µM; IC50 [2]: 143 µM; Ki [2]: 16.4 µM

Q: `CN(C(=O)c1ccc2ccccc2c1)c1ccccc1C(=O)O` was tested. Which IC50 [1] did it give?
A: > 200 µM

Q: And the IC50 [2]?
A: > 200 µM

Q: Which results are given for `O=C(Nc1ccccc1C(=O)O)c1ccc2ccccc2c1`?
A: IC50 [1]: 13.8 µM; Ki [1]: 1.8 µM; IC50 [2]: > 200 µM

Q: Which results are given for `O=C(Nc1ccccc1C(=O)O)c1ccc(-c2ccccc2)cc1`?
A: IC50 [1]: 5 µM; Ki [1]: 0.7 µM; IC50 [2]: 154 µM; Ki [2]: 17.7 µM

Q: For `CN(C(=O)c1ccc2cc(Br)ccc2c1)c1ccccc1C(=O)O`, which IC50 [1] is on record?
A: > 200 µM

Q: What about the IC50 [2] of the same molecule?
A: 93.4 µM

Q: What about the Ki [2] of the same molecule?
A: 10.8 µM

— ChEMBL document CHEMBL1148537, “The first de novo designed inhibitors of Plasmodium falciparum dihydroorotate dehydrogenase” (Bioorg Med Chem Lett, 2006)
